Tests used:
[1] = test system: LS174T colon cancer cells; test: Metabolic labeling of LS174T cells with azido-sugars, azides detected by DBCO-Cy5 (confocal imaging, flow cytometry); assay type: cell-based
Protocol: General procedures for confocal imaging of azido-sugar labeled cells. Cells were seeded onto coverslips in a 6-well plate at a cell density of 40 k/well. Ac4ManAz or Ac3ManAz derivatives were added with a final concentration of 50 μM and the cells were incubated at 37° C. for 72 h. The medium was removed and washed with PBS for three times. DBCO-Cy5 (50 μM) in Opti-MEM was then added and the cells were incubated for another 1 h. Then the medium was removed and the cells were washed with PBS for three times. 4% paraformaldehyde (PFA) solution was added to fix the cells for 10 min, followed by staining of cell nucleus with DAPI (2 μg/mL) for 10 min. The coverslips were mounted on microscope slides with the addition of ProLong Gold antifade reagent, and the prepared sample was stored in dark for imaging.
General procedures for flow cytometry analysis of azido-sugar labeled cells. Cells were seeded onto coverslips in a 6-well plate at a cell density of 40 k/well. Ac4ManAz or Ac3ManAz derivatives were added and incubated with cells for 72 h. After removal of medium and multiple washing steps, DBCO-Cy5 in opti-MEM was added and incubated with cells at 37° C. for 1 h. The opti-MEM was then removed and cells were washed with PBS for three times. Cells were lifted by incubating with trypsin solution (1 mL) at 37° C. for 3 min and transferred to test tubes with addition of 4% PFA solution (0.5 mL). Twenty thousand cells per sample were analyzed by flow cytometry and data analysis was performed on the FCS Express software.
Ac3ManAzNB mediated controlled cell labeling. LS174T cells were seeded onto coverslips in a 6-well plate at a cell density of 40 k/well. Ac3ManAzNB with a final concentration of 50 μM was added. […] Cells without UV irradiation were continuously incubated for 72 h. Cell samples for confocal imaging and flow cytometry were then prepared following the above-mentioned procedures.
Ac3ManAzHQ mediated controlled cell labeling. LS174T colon cancer cells or Caco-2 colon cancer cells or human fibroblast IMR90 cells were seeded onto coverslips in a 6-well plate at a cell density of 40 k/well and allowed to attach for overnight. Ac3ManAzHQ with a final concentration of 50 μM was added, followed by the addition of curcumin with a final concentration of 50 μM. Cells treated with PBS or Ac3ManAzHQ only were used as control. After 72-h incubation, cell samples for confocal imaging and flow cytometry were prepared following the above-mentioned procedures.
E-S mediated controlled cell labeling in vitro. LS174T colon cancer cells or human fibroblast IMR90 cells were seeded onto coverslips in a 6-well plate at a cell density of 40 k/well. E-S with a final concentration of 50 μM was added, followed by the addition of either TSA (1 μM) or Z-FY-CHO (50 μM). Cells treated with PBS or E-S only were used as the control. After 72-h incubation, the medium was removed and cell samples for confocal imaging and GE-Analyzer measurements were prepared similarly to above-mentioned procedures.

LS174T cells [2] = test: Western blot analysis of LS174T cells treated with azido-sugars; assay type: cell-based
Protocol: Western blot analysis of cells treated with azido-sugars. LS174T cells were seeded onto cell culture flasks (25 cm^2 growth area) at a density of 1×10^6 cells per plate in 5 mL of media. Different azido-sugars were added and incubated with cells for 72 h. The cells were washed with PBS twice and harvested from the flasks using a cell scraper. Cells were pelleted by centrifugation at 1000 rpm for 5 min and re-suspended in 200 μL of lysis buffer (1% SDS, 100 mM Tris.HCl, pH 7.4) containing 1 tablet protease inhibitor (EDTA-free). The lysate was incubated at 4° C. for 30 min, followed by centrifugation at 3000 rcf for 10 min to remove insoluble debris. The total concentration of soluble protein in each sample was determined by bicinchoninic acid (BCA) assay and adjusted to the same concentration. Then 20 μL of the lysate was taken out and incubated with phosphine-PEG3-biotin (2 μL, 5 mM in PBS) at 37° C. for 6 h. Loading buffer was added to each sample and samples were loaded onto 10% SDS-PAGE gel after heating at 95° C. After running the gel for 100 min, proteins were transferred to Hybond P membrane, followed by blocking of the membrane with 5% bovine serum albumin (BSA) in TBST (50 mM Tris.HCl, 150 mM NaCl, 0.1% Tween 20, pH 7.4) for 2 h. The membrane was then incubated with streptavidin-HRP (diluted 1:2000 in TBST) overnight at 4° C., rinsed with TBST for three times and developed by ECL Western Blotting Substrate. For fluorescent visualization of protein bands, 20 μL of cell lysate was directly incubated with DBCO-Cy3 solution for 3 h. After the gel running and membrane transfer, protein bands were visualized using an Image Quant LAS 4010 system with a Cy3/Cy3 (excitation/emission) channel.

[3] = test system: subcutaneous LS174T tumors; test: In vivo tumor labeling after intratumoral injection of azido-sugars, DBCO-Cy5 i.v.; set-up: species or system athymic nude mice; conditions: for In vivo Cy5 fluorescence intensity of pretreated left tumors vs control right tumors: 24 h p.i. of i.v. DBCO-Cy5; for Ex vivo difference in Cy5 FI between treated tumors and control tumors: ex vivo imaging of tumors; for Western blot of tumors (azido-modified glycoproteins): intratumoral once daily for three days, tumors harvested 24 h p.i.; for Cy5 fluorescence of tumor sections (confocal imaging): tumor sections after ex vivo imaging
Protocol: In vivo tumor labeling of Ac4ManAz, Ac3ManAzEt, and Ac3ManAzNB. LS174T tumor models were established on 6 week-old athymic nude mice by subcutaneous injection of LS174T colon cancer cells (1.5 million) in HBSS/matrigel (1/1, v/v) to both flanks. When the tumors grew to 5-6 mm, Ac4ManAz or Ac3ManAzEt or Ac3ManAzNB (25 mM, 20 μL) was injected into the left tumors once daily for three days while the same amount of PBS was injected to the right tumors as control (N=3 per group). At 24 h post the last injection, DBCO-Cy5 (5 mg/kg) was i.v. injected and its biodistribution was monitored via in vivo fluorescence imaging. Prior to imaging, nude mice were placed on the sample stage equipped with anesthesia input and output ports, and imaged by the Maestro In-Vivo Fluorescence Imaging System. The excitation filter of 575-605 nm was used. The tunable emission filter was automatically stepped in 10-nm increments from 630 to 850 nm with an exposure time of 50 ms for images taken at each wavelength. Collected images were analyzed by the Maestro software, which uses spectral unmixing algorithms to subtract autofluorescence from Cy5 signals. Tumors and major organs were harvested from mice at 24 h post injection of DBCO-Cy5. Ex vivo images were collected similarly using the Maestro system. Fluorescence intensity at selected ROIs was quantified using Maestro imaging software. All values were presented as means±standard deviation (n=3).
Western blot analysis of tissues. Tumors and organs harvested from azido-sugar treated mice were transferred into glass tubes containing 2 mL of lysis buffer (1% SDS, 100 mM Tris HCl, pH 7.4), homogenized, and incubated at 4° C. for 30 min. The lysates were then centrifuged at 3000 rcf for 10 min to remove the insoluble debris. Total soluble protein concentrations were determined by BCA assay and adjusted to 5 mg/mL for each group. The rest of procedures were the same as the above-mentioned western blot analysis of cells.
Confocal imaging of tumor tissue sections. After ex vivo imaging, tumors were directly frozen in O.C.T. compound and sectioned on a cryostat (Leica CM3050S) with a thickness of 6-8 μm. DAPI in PBS (2 μg/mL) was added onto the tissue-attaching microscope slides to stain cell nucleus. After 10 min, DAPI solution was removed and tissues were washed with PBS for three times. Coverslips were mounted on the microscope slides with the addition of ProLong Gold antifade reagent, and the prepared sample was stored in dark for confocal imaging.

LS174T cells [4] = test: Uptake mechanism of DBCO-Cy5 in E-S pretreated LS174T cells; assay type: cell-based
Protocol: Uptake mechanism of DBCO-Cy5 or D-D in vitro. LS174T cells were seeded onto a tissue culture dish with cover glass bottom, and incubated with E-S (50 μM) for three days. After multiple washing with PBS, Lysotracker green in fresh medium was added and incubated for 1 h. Then DBCO-Cy5 was added and cells were further incubated for 1 h. Hoechst 33342 (10 μg/mL) and CellMask orange plasma membrane stain (1 μg/mL) were added to stain cell nucleus and cell membrane, respectively for 10 min. After removing the medium and washing with PBS, cells were further incubated at 37° C. At different time points (1 h, 3 h, 6 h, 12 h, and 24 h), cells were imaged under a fluorescence microscope to monitor the uptake of DBCO-Cy5. Cells without E-S pretreatment were used as control. For live cell imaging of D-D treated cells, CellMask deep red plasma membrane stain was used to stain cell membrane and lysosomes were not stained to avoid the interference over fluorescence signals of D-D.

[5] = test system: cellular HDAC/CTSL activity; test: Inhibitory effect of TSA and Z-FY-CHO on cellular HDAC/CTSL activity (Naph-Lys reporter); assay type: cell-based
Protocol: Detection of cellular HDAC/CTSL activity. Cells were seeded in a 24-well plate at a cell density of 8 k/well, and were allowed to attach for overnight. Naph-Lys (50 μM) in OptiMEM was added and incubated with cells for different time (30 min, 1 h, 2 h, and 4 h). After removal of the OptiMEM and washing with PBS twice, cells were fixed with 4% PFA for 10 min and stained with DAPI (2 ng/mL) for 10 min. Average fluorescence intensity of cells were measured on a GE-Analyzer using DAPI and FITC channels. The DAPI channel was used for determining cell number per well. The FITC channel was used to determine the total fluorescence intensity of released Naph-NH2 per well. Data were presented with the average fluorescence intensity per cell.
Inhibitory effect of TSA and Z-FY-CHO on cellular HDAC/CTSL activity. TSA and Z-FY-CHO are known to be the inhibitor of HDAC and CTSL, respectively. To study their inhibitory effect, cells were seeded in a 24-well plate at a cell density of 8 k/well, and were allowed to attach for overnight. Cells were then divided into 4 groups: group 1 cells were added Naph-Lys (50 μM); group 2 cells were added Naph-Lys (50 μM)+TSA (1 μM); group 3 cells were added Naph-Lys (50 μM)+Z-FY-CHO (20 μM); group 4 cells were added PBS as negative control. […] Average fluorescence intensity of cells were measured on a GE-Analyzer using DAPI and FITC channels.

[6] = test system: MDA-MB-231 breast cancer cells; test: E-S mediated in vitro labeling of MDA-MB-231 cells; assay type: cell-based
Protocol: E-S mediated in vitro labeling of MDA-MB-231 cells. MDA-MB-231 breast cancer cells were seeded onto coverslips in a 6-well plate at a cell density of 40 k/well. E-S with a final concentration of 50 μM was added, followed by the addition of either TSA (1 μM) or Z-FY-CHO (50 μM). Cells treated with PBS or E-S only were used as control. After 72-h incubation, the medium was removed and cell samples for confocal imaging and IN cell Analyzer measurements were prepared following the above-mentioned procedures.

For `CCOC1O[C@H](COC(C)=O)[C@@H](OC(C)=O)[C@H](OC(C)=O)[C@@H]1NC(=O)CN=[N+]=[N-]` (stereo partly drawn) [Ac3ManAzEt], the “Cy5 fluorescence on the cell surface (CLSM)” value (from here on “Cy5 fluorescence … (CLSM)”) ([1]; LS174T cells, 50 μM azido-sugar three days (72 h), then DBCO-Cy5 1 h) was “negligible Cy5 fluorescence on the cell surface”, the “Western blot of azido-glycoproteins (biotinylated with phosphine-PEG3-biotin)” value (LS174T cells [2]; 72 h) was “only two endogenous biotinylated proteins” and the “In vivo Cy5 fluorescence intensity of pretreated left tumors vs control right tumors” value [3] was “negligible Cy5 retention enhancement”. For the same molecule, the “Ex vivo difference in Cy5 FI between treated tumors and control tumors” value [3] was “no significant difference”, the “Western blot of tumors (azido-modified glycoproteins)” value [3] was “the same endogenous protein bands as PBS group” and the “Cy5 fluorescence of tumor sections (confocal imaging)” value [3] was “negligible Cy5 fluorescence”.

`CC(=O)OC[C@H]1OC(OCc2ccccc2[N+](=O)[O-])[C@@H](NC(=O)CN=[N+]=[N-])[C@@H](OC(C)=O)[C@@H]1OC(C)=O` (stereo partly drawn) [Ac3ManAzNB] was tested, and the “Cy5 fluorescence … (CLSM)” value ([1]; LS174T cells, three days, with UV irradiation (10 min, 10 mW/cm^2)) was “strong Cy5 fluorescence”, the “Cy5 fluorescence … (CLSM)” value ([1]; LS174T cells, three days, without UV irradiation) was “negligible Cy5 fluorescence on cell surface” and the “Cy5 fluorescence by flow cytometry” value ([1]; LS174T cells, with UV irradiation compared with Ac3ManAzNB only) was “significantly enhanced Cy5 fluorescence”. The “Western blot of azido-glycoproteins” value (LS174T cells [2]; with UV) was “a series of protein bands”, the “Western blot of azido-glycoproteins” value (LS174T cells [2]; without UV) was “the same two endogenous biotinylated protein bands as PBS group” and the “In vivo Cy5 fluorescence intensity of pretreated left tumors vs control right tumors” value [3] was “negligible Cy5 retention enhancement”. The “Ex vivo difference in Cy5 FI between treated tumors and control tumors” value [3] was “no significant difference”, the “Western blot of tumors (azido-modified glycoproteins)” value [3] was “the same endogenous protein bands as PBS group” and the “Cy5 fluorescence of tumor sections (confocal imaging)” value [3] was “negligible Cy5 fluorescence”.

`CC1(C)C(/C=C/C=C/C=C2/N(CCCCCC(=O)NCCC(=O)N3Cc4ccccc4C#Cc4ccccc43)c3ccc(S(=O)(=O)O)cc3C2(C)C)=[N+](CCCS(=O)(=O)[O-])c2ccc(S(=O)(=O)O)cc21` [DBCO-Cy5] was tested, and the “Further incubation time at which DBCO-Cy5 completely disappeared from the cell membrane” value (LS174T cells [4]; E-S pretreated LS174T cells) was 12 h and the “Cy5 signal in control cells without E-S pretreatment (passive uptake)” value (LS174T cells [4]; LS174T, DBCO-Cy5 1 h) was “Negligible Cy5 signal”.

In the case of `CC(/C=C/C(=O)NO)=C\[C@@H](C)C(=O)c1ccc(N(C)C)cc1` [TSA, Trichostatin A], the “Labeling efficiency of E-S on co-incubation with inhibitor” value ([1]; LS174T cells co-incubated with E-S and inhibitor) is reported as “greatly reduced”, the “Turn-on fluorescence intensity of Naph-Lys in the presence of the inhibitor” value [5] is reported as “greatly decreased” and the “Labeling efficiency of E-S in the presence of inhibitor” value [6] is reported as “significantly decreased the labeling efficiency”.

In the case of `COc1cc(/C=C/C(=O)CC(=O)/C=C/c2ccc(O)c(OC)c2)ccc1O` [curcumin], the “Labeling efficiency of Ac3ManAzHQ on co-incubation with NQO1 inhibitor” value ([1]; LS174T cells, compared with Ac3ManAzHQ only) is reported as “significant reduction of labeling efficiency”.
